Measurements: ChEMBL document CHEMBL1201862, “PubChem BioAssay data set” (2004)
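Compound exposure: 48 hours, 5 concentrations, 96-well plates. GI50 = concentration required for 50% inhibition of growth.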 Active and inactive are the calls of the source. Rule as the data show it: active = GI50 up to about 1.1 µM and inactive = higher.

Assays:
Test in all cases: DTP human tumour cell line panel, 48 h
[1] = tested on: 786-0
[2] = tested on: A549
[3] = tested on: CAKI-1
[4] = tested on: HCC 2998
[5] = tested on: IGROV-1
[6] = tested on: KM12
[7] = tested on: MOLT-4
[8] = tested on: NCI-H23
[9] = tested on: NCI-H522
[10] = tested on: OVCAR-3
[11] = tested on: OVCAR-4
[12] = tested on: SF-268
[13] = tested on: SF-295
[14] = tested on: SF-539
[15] = tested on: SN12C
[16] = tested on: SNB-75
[17] = tested on: UO-31
[18] = tested on: A498
[19] = tested on: CCRF-CEM

Measured: GI50

Sc1nn2c(COc3ccc(Cl)cc3)nnc2s1
inactive: [1] > 100 µM | [2] > 100 µM | [3] > 100 µM | [4] > 100 µM | [5] > 100 µM | [6] > 100 µM | [7] > 100 µM | [8] > 100 µM | [9] > 100 µM | [10] > 100 µM | [11] > 100 µM | [12] > 100 µM | [13] > 100 µM | [14] > 100 µM | [15] > 100 µM | [16] > 100 µM | [17] > 100 µM

c1ccc(C2OCCO2)c(OCCOc2cc(OCCOc3ccccc3C3OCCO3)c(OCCOc3ccccc3C3OCCO3)cc2OCCOc2ccccc2C2OCCO2)c1
inactive: [1] 4.67 µM | [18] 15.8 µM | [2] 24.4 µM | [3] > 100 µM | [19] > 100 µM | [5] 12.4 µM | [6] 91.8 µM | [7] > 100 µM | [8] 11.3 µM | [9] 2.42 µM | [10] 17.8 µM | [11] 8.34 µM | [12] 15.3 µM | [13] 17.9 µM | [14] 10.7 µM | [15] > 100 µM | [16] 2.16 µM | [17] 12.9 µM

NC1=NN(c2ccccc2)C(=O)C1C(=O)C(=O)Nc1ccccc1 (centres undefined)
inactive: [1] > 100 µM | [18] > 100 µM | [2] > 100 µM | [3] > 100 µM | [19] > 100 µM | [4] > 100 µM | [5] > 100 µM | [6] > 100 µM | [7] > 100 µM | [8] > 100 µM | [9] > 100 µM | [10] > 100 µM | [11] > 100 µM | [12] > 100 µM | [13] > 100 µM | [14] > 100 µM | [15] > 100 µM | [17] > 100 µM

O=C(O)/C(=C/c1c(O)ccc2ccccc12)c1csc(-c2nc(/C(=C\c3c(O)ccc4ccccc34)C(=O)O)cs2)n1
inactive: [1] 13.5 µM | [18] 20.7 µM | [2] 23.3 µM | [19] 10.7 µM | [4] 17.4 µM | [5] 11.1 µM | [6] 19.8 µM | [7] 13.4 µM | [8] 9.55 µM | [10] 13.3 µM | [12] 10 µM | [13] 11.2 µM | [14] 6.17 µM | [16] 11 µM | [17] 1.53 µM

CCN(CC)CCCCC1CCN(CC(=O)N2c3cc(Cl)ccc3NC(=O)CC2C)CC1 (centres undefined)
inactive: [1] > 100 µM | [18] > 100 µM | [2] > 100 µM | [3] > 100 µM | [19] > 100 µM | [4] > 100 µM | [5] > 100 µM | [7] > 100 µM | [8] > 100 µM | [10] > 100 µM | [11] > 100 µM | [12] > 100 µM | [13] > 100 µM | [15] > 100 µM | [17] > 100 µM

O=c1cc[nH]c2ccc3nn[nH]c3c12
inactive: [1] > 100 µM | [18] > 100 µM | [2] > 100 µM | [3] > 100 µM | [19] > 100 µM | [4] > 100 µM | [5] > 100 µM | [6] > 100 µM | [7] > 100 µM | [8] > 100 µM | [10] > 100 µM | [11] > 100 µM | [12] > 100 µM | [13] > 100 µM | [14] > 100 µM | [15] > 100 µM | [16] > 100 µM

COc1ccc(CC#N)c(OCc2ccccc2)c1
inactive: [1] > 100 µM | [18] 11.2 µM | [2] 78.3 µM | [3] > 100 µM | [19] > 100 µM | [4] 29.9 µM | [5] 29.4 µM | [6] 61.5 µM | [7] 30.3 µM | [8] 77.8 µM | [9] 38.9 µM | [10] 80.5 µM | [11] 71.6 µM | [12] 68.4 µM | [13] 60 µM | [14] > 100 µM | [15] 51.5 µM | [17] 42.2 µM

Cc1ccc(C(=O)c2nnc(C(=O)c3ccc(C)cc3)nn2)cc1
inactive: [1] 28.2 µM | [2] 73.5 µM | [3] 74.3 µM | [19] 18.8 µM | [4] > 100 µM | [5] 95.9 µM | [6] 62.7 µM | [7] 34.1 µM | [8] > 100 µM | [9] 35.5 µM | [10] 43.4 µM | [11] 41.1 µM | [12] 21 µM | [13] 52.8 µM | [14] 38.9 µM | [15] 45.3 µM | [16] > 100 µM | [17] 39.2 µM

COc1ccc(NC(=O)C(=O)C2CNC(=O)NC2=O)c(OC)c1 (centres undefined)
inactive: [1] > 100 µM | [2] > 100 µM | [3] > 100 µM | [19] > 100 µM | [4] > 100 µM | [5] > 100 µM | [6] > 100 µM | [7] > 100 µM | [8] > 100 µM | [9] > 100 µM | [10] > 100 µM | [11] > 100 µM | [12] > 100 µM | [13] > 100 µM | [14] > 100 µM | [15] > 100 µM | [16] > 100 µM | [17] > 100 µM

C(=N\CC/N=C/c1cccc2ccccc12)/c1cccc2ccccc12
inactive: [1] > 100 µM | [2] > 100 µM | [3] > 100 µM | [4] > 100 µM | [5] > 100 µM | [6] > 100 µM | [7] > 100 µM | [8] > 100 µM | [9] > 100 µM | [11] > 100 µM | [13] > 100 µM | [14] > 100 µM | [15] > 100 µM | [16] 12.6 µM | [17] > 100 µM

CCN(CC)CCNC(=O)c1ccc([N+](=O)[O-])cc1OC
inactive: [1] > 100 µM | [18] > 100 µM | [2] > 100 µM | [3] > 100 µM | [19] > 100 µM | [5] > 100 µM | [6] > 100 µM | [7] > 100 µM | [8] > 100 µM | [9] > 100 µM | [10] > 100 µM | [11] > 100 µM | [12] > 100 µM | [13] > 100 µM | [14] > 100 µM | [15] > 100 µM | [16] > 100 µM | [17] > 100 µM

C=CCC1OC(C)(C)Oc2ccc(OCOCCOC)cc21 (centres undefined)
inactive: [1] > 100 µM | [18] > 100 µM | [2] > 100 µM | [3] > 100 µM | [4] > 100 µM | [5] > 100 µM | [6] > 100 µM | [7] > 100 µM | [8] > 100 µM | [10] > 100 µM | [11] > 100 µM | [12] > 100 µM | [13] > 100 µM | [14] > 100 µM | [15] > 100 µM | [16] > 100 µM | [17] > 100 µM
